Measured values reported in ChEMBL document CHEMBL1201862, “PubChem BioAssay data set” (2004).
The source made the active and inactive calls.

Legend:
[1] = ATP-based viability loss in HeLa cells – cell-based, CellTiter-Glo luminescence, dry powder, set 2, cytotoxicity control, dose response (AID 720593); assay type: functional
[2] = ATP-based viability loss in HEK293T cells – cell-based, CellTiter-Glo luminescence, dry powder, set 2, cytotoxicity control, dose response (AID 720595); assay type: functional; settings: HEK293
[3] = biological target: Heat shock protein HSP 90-alpha (Homo sapiens, UniProt P07900); assay type: functional, organism-based
Albumin = Albumin (Bos taurus, UniProt P02769); assay: Counterscreen for inhibitors of T-cell receptor (TCR)-CD3 interaction: Fluorescence-based biochemical high throughput dose response assay to identify inhibitors of T-cell receptor (TCR)-CD3 interaction using a TAMRA-labeled BSA probe.; assay type: functional
[4] = NIH-3T3 fibroblast cytotoxicity, dose response, cytotoxicity control, cell-based, fluorescence, Alamar Blue, secondary assay (AID 2327); assay type: functional;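 note: NIH-3T3 mouse fibroblasts cultured with fluconazole at 8 µg/mL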
[5] = fluconazole-exposed Candida albicans growth modulators – fluorescence, retest, confirmation (AID 2467); assay type: functional, cell-based
[6] = toxicity toward HEK293 cells – cell-based, dry powder samples, cytotoxicity control, dose response (AID 720567); assay type: functional
[7] = Luminescence Cell-Based Dose Response HTS to Identify Activators of Luciferase Translation or Activity in H4 […] Cells. [Related pubchem assays: 1829 (Project Summary), 1814 (Primary HTS)]; assay type: functional
[8] = Luminescence Cell-Based Dose Confirmation HTS to Identify Activators of 5'UTR Stem-Loop Driven Alpha-Synuclein mRNA Translation in H4 Neuroglioblastoma Cells. [Related pubchem assays: 1829 (Project Summary), 1814 (Primary HTS)]; assay type: functional
H4 = assay: Luminescence Cell-Based Dose Response HTS to Identify Activators of 5'UTR Stem-Loop Driven Prion Protein mRNA Translation in H4 Neuroglioblastoma Cells. [Related pubchem assays: 1829 (Project Summary), 1814 (Primary HTS)]; assay type: functional; settings: Homo sapiens
A549 = assay: viability loss in A549 cells – cell-based, plate reader, cherry-pick samples, cytotoxicity control, dose response (AID 687028); assay type: functional; settings: Homo sapiens
Beta-lactamase [9] = biological target: T1, Beta-lactamase (Pseudomonas aeruginosa, UniProt Q79MP6); assay: inhibition of IMP-1 beta-lactamase activity – biochemical, epi-absorbance, selectivity assay for VIM-2 inhibitor project, dose response (AID 1920)
Beta-lactamase [10] = biological target: T1, Beta-lactamase; assay: […] counterscreen for selective VIM-2 inhibitors: dose response biochemical high throughput screening assay to identify inhibitors of IMP-1 metallo-beta-lactamase.
[11] = blockers of CRF-binding protein–CRF-R2 complex – cell-based, uHTS hits, 384-well, dose response (AID 651639); assay type: functional, Homo sapiens; settings: read-out: IC50_Mean
[12] = biological target: T2, Corticotropin-releasing factor receptor 2/Corticotropin-releasing factor-binding protein (Homo sapiens, UniProt P24387+Q13324); assay: Dose Response confirmation of uHTS hits for small molecule antagonists of the CRF-binding protein and CRF-R2 receptor complex.; assay type: functional; settings: read-out: IC50_Mean
T2 sequence (Q13324 whole entry): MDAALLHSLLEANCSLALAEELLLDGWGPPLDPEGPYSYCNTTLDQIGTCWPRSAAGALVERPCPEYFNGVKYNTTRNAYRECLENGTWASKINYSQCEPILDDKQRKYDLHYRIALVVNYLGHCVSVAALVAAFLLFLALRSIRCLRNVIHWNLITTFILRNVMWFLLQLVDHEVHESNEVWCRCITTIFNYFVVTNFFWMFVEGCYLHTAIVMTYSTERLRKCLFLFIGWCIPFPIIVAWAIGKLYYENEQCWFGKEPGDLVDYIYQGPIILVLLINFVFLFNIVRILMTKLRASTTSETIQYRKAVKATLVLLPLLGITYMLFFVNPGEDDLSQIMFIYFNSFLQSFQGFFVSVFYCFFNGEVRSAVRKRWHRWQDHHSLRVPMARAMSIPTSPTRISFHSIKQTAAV
T2 sequence (P24387 whole entry): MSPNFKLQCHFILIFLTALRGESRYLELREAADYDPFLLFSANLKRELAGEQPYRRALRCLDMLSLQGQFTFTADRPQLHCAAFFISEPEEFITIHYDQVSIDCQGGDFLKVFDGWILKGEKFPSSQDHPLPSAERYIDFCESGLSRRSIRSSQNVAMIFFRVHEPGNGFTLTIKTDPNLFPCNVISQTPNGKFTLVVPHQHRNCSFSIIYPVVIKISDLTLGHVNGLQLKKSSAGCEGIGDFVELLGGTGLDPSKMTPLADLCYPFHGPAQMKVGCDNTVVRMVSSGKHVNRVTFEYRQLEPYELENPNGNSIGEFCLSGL

[13] = biological target: T2, Corticotropin-releasing factor receptor 2/Corticotropin-releasing factor-binding protein; assay: activators of CRF receptor 2 with binding protein – uHTS hits, confirmation (AID 602473); assay type: functional; settings: read-out: EC50_Mean
Beta-lactamase [14] = biological target: Beta-lactamase (Salmonella choleraesuis (strain SC-B67), UniProt Q5J463); assay: Epi-absorbance-based counterscreen for selective VIM-2 inhibitors: dose response biochemical high throughput screening assay to identify inhibitors of TEM-1 serine-beta-lactamase.
Major prion protein = Major prion protein (Homo sapiens, UniProt P04156); assay type: functional, cell-based
Cysteine protease ATG4B = biological target: T3, Cysteine protease ATG4B (Homo sapiens, UniProt Q9Y4P1); assay type: functional;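 note: Fluorescence-based dose-response confirmation assay measuring inhibition of ATG4B activity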
T3 sequence (Q9Y4P1 whole entry): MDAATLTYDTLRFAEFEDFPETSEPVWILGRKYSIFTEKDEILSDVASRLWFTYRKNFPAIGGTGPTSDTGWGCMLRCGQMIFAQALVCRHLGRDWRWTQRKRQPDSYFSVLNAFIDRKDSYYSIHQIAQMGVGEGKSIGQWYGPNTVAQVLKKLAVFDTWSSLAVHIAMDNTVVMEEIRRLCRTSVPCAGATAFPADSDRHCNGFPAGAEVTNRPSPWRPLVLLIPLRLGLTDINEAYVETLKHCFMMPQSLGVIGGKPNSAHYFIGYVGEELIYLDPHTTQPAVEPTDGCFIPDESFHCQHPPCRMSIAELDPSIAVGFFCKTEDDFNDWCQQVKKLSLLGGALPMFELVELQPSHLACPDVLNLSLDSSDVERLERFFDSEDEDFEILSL

[15] = Luminescence Cell-Based Dose Response to Identify Activators of 5'UTR Stem-Loop Driven Prion Protein mRNA Translation in H4-C Neuroglioblastoma Cells. [Related pubchem assays: 1829 (Project Summary), 1814 (Primary HTS)]; assay type: functional
[16] = Luminescence Cell-Based Dose Confirmation to Identify Activators of 5'UTR Stem-Loop Driven Alpha-Synuclein mRNA Translation in H4 Neuroglioblastoma Cells. [Related pubchem assays: 1829 (Project Summary), 1814 (Primary HTS)]; assay type: functional
[17] = biological target: Fructose-bisphosphate aldolase (Mycobacterium tuberculosis, UniProt P9WQA3); assay: Fluorescence-based biochemical high throughput dose response assay for inhibitors of the fructose-bisphosphate aldolase (FBA) of M. tuberculosis.; assay type: functional
Protein skinhead-1 = biological target: T4, Protein skinhead-1 (Caenorhabditis elegans, UniProt P34707); assay type: functional
T4 sequence (P34707 whole entry): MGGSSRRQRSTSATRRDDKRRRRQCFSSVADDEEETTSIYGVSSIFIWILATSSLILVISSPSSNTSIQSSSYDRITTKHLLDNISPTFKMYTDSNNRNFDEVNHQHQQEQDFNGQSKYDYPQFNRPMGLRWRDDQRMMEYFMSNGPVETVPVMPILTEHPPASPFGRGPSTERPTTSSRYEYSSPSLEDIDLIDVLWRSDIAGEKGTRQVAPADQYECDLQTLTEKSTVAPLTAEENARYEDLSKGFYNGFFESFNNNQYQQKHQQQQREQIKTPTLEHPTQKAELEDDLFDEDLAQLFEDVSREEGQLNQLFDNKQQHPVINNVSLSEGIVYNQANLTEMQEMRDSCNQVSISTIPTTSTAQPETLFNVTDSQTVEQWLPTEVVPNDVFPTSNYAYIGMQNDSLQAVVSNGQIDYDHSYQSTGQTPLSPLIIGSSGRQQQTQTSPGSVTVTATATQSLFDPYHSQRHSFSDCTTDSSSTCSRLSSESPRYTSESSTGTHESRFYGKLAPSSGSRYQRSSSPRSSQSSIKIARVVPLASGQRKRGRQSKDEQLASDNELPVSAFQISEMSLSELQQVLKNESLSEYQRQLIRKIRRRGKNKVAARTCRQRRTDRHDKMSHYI

[18] = Luminescence Cell-Based Dose Response to Identify Activators of Luciferase Translation or Activity in H4-C Neuroglioblastoma Cells. [Related pubchem assays: 1829 (Project Summary), 1814 (Primary HTS)]; assay type: functional
Phospholipase A2 = Phospholipase A2 (Homo sapiens, UniProt P04054); assay type: functional;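 note: confirmatory dose-response counterscreen on phospholipase A2, testing hits that came from an ultra-high-throughput screen for ATG4B inhibitors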

For `O=C(CSc1ccc(-c2ccccn2)nn1)Nc1ccccc1`, the AC50 [1] was > 52 µM (inactive), the AC50 [2] was 25.8 µM (active) and the AC50 [3] was 35.3 µM (active).

For `COc1ccc(NC(=O)NNC(=O)c2cc3ccccc3cc2O)cc1`, the IC50 (Albumin) was > 94.1 µM (inactive), the EC50 [4] was > 160 µM (inactive) and the EC50 [5] was > 38 µM (not active).

For `COC(=O)c1cn(C(=O)c2ccc(OC)cc2)c2ccccc12`, the AC50 [6] was > 30 µM (inactive), the EC50 [7] was 9.72 µM (active) and the EC50 [8] was > 120 µM (not active). The EC50 (H4) was > 120 µM (not active).

In the case of `C[C@]1(C(=O)NCCc2c[nH]c3ccccc23)C=C[C@@H](Cc2ccccc2)N1C(=O)c1ccccc1`, the AC50 (A549) is reported as 20.6 µM (active).

In the case of `Oc1nc(SCc2nnc(S)n2-c2ccccc2)nc2sc3c(c12)CCC3`, the IC50 (Beta-lactamase [9]) is reported as > 59.6 µM (inactive), the IC50 (Beta-lactamase [10]) is reported as > 59.6 µM (inactive) and the IC50 [11] is reported as 6.63 µM (active). For the same molecule, the IC50 [12] was 13.5 µM (active), the EC50 [13] was > 53 µM (inactive) and the IC50 (Beta-lactamase [14]) was > 59.6 µM (inactive).

With `Cc1cccc2c(=O)c(-c3ccc4c(c3)OCO4)c(NC(=O)c3ccco3)oc12` the IC50 (Major prion protein) was 9.57 µM (active) and the IC50 (cells) was > 138 µM (inactive).

With `COc1ccc2c(c1OC)C(=O)OC2Nc1nc(-c2ccc(-c3ccccc3)cc2)cs1` (configuration not stated) the IC50 (Cysteine protease ATG4B) was 8.28 µM (active), the EC50 [15] was 0.254 µM (active) and the EC50 [16] was 0.396 µM (active). For the same molecule, the IC50 [17] was 6.08 µM (active), the IC50 (Protein skinhead-1) was 18.7 µM (active) and the EC50 [18] was 0.284 µM (active). The EC50 [7] was < 0.1 µM (active) and the IC50 (Phospholipase A2) was 17.1 µM (active).
